Source: ChEMBL document CHEMBL1201862, “PubChem BioAssay data set” (2004)
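48-hour exposure; five concentrations; linearly interpolated endpoints. GI50: concentration for 50% inhibition of growth.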 Calls of active or inactive are those of the source. Rule as the data show it: active = GI50 up to about 1.1 µM and inactive = higher.

Key:
Test in all cases: NCI-60 cell line screen, 48 h
SW-620 = system: SW-620
T47D = system: T47D
A549 = system: A549
UACC-257 = system: UACC-257
ACHN = system: ACHN
OVCAR-8 = system: OVCAR-8
MOLT-4 = system: MOLT-4
TK-10 = system: TK-10
K562 = system: K562
BT-549 = system: BT-549
CAKI-1 = system: CAKI-1
OVCAR-3 = system: OVCAR-3
SK-MEL-2 = system: SK-MEL-2
SF-295 = system: SF-295
Malme-3M = system: Malme-3M
CCRF-CEM = system: CCRF-CEM
SR = system: SR
MDA-MB-435 = system: MDA-MB-435
NCI-H460 = system: NCI-H460

Structure (SMILES) | GI50 (SW-620) | GI50 (T47D) | GI50 (A549) | GI50 (UACC-257) | GI50 (ACHN) | GI50 (OVCAR-8) | GI50 (MOLT-4) | GI50 (TK-10) | GI50 (K562) | GI50 (BT-549) | GI50 (CAKI-1) | GI50 (OVCAR-3) | GI50 (SK-MEL-2) | GI50 (SF-295) | GI50 (Malme-3M) | GI50 (CCRF-CEM) | GI50 (SR) | GI50 (MDA-MB-435) | GI50 (NCI-H460)
CCOC(=O)C(C)c1nc2c(Cl)c3ncccc3cc2[nH]c1=O (stereo unspecified) | 75.2 µM (inactive) | 64.3 µM (inactive) | 53.2 µM (inactive) | > 100 µM (inactive) | 22.6 µM (inactive) | 36.5 µM (inactive) | 31.4 µM (inactive) | 59.7 µM (inactive) | 34 µM (inactive) | 57 µM (inactive) | 69.5 µM (inactive) | 57.3 µM (inactive) | > 100 µM (inactive) | 79.8 µM (inactive) | > 100 µM (inactive) | 28.2 µM (inactive) | 12.9 µM (inactive) | 84.5 µM (inactive) | –
O=C1C=C(OCCCl)C(=O)c2c(O)ccc(O)c21 | – | 2.24 µM (inactive) | 0.262 µM (active) | 0.177 µM (active) | 1.54 µM (inactive) | 1.94 µM (inactive) | 1.72 µM (inactive) | 2.38 µM (inactive) | 2.25 µM (inactive) | 0.226 µM (active) | 2.03 µM (inactive) | 1.06 µM (active) | 0.478 µM (active) | 1.56 µM (inactive) | 0.175 µM (active) | 0.469 µM (active) | 0.861 µM (active) | 0.204 µM (active) | 0.395 µM (active)
Cc1c(CN2CCOCC2)c(CN2CCOCC2)c(C)n1-c1ccc(Cl)cn1 | > 100 µM (inactive) | > 100 µM (inactive) | > 100 µM (inactive) | > 100 µM (inactive) | > 100 µM (inactive) | > 100 µM (inactive) | > 100 µM (inactive) | > 100 µM (inactive) | > 100 µM (inactive) | > 100 µM (inactive) | > 100 µM (inactive) | > 100 µM (inactive) | > 100 µM (inactive) | > 100 µM (inactive) | > 100 µM (inactive) | > 100 µM (inactive) | > 100 µM (inactive) | > 100 µM (inactive) | > 100 µM (inactive)
Cc1ccc(O)c(C2=CC3=NNC(=O)C3C(c3cccc(Cl)c3)C2)c1 (stereo unspecified) | 38 µM (inactive) | 28.1 µM (inactive) | 52.5 µM (inactive) | 64.3 µM (inactive) | 30.5 µM (inactive) | 26.2 µM (inactive) | 46.2 µM (inactive) | 28.1 µM (inactive) | 37.1 µM (inactive) | 26.7 µM (inactive) | 32.5 µM (inactive) | 26.4 µM (inactive) | 28.2 µM (inactive) | 37.6 µM (inactive) | 35.3 µM (inactive) | 31.6 µM (inactive) | 29.4 µM (inactive) | 32.7 µM (inactive) | 32.4 µM (inactive)
CC(C)(C)OC(=O)N/C=C1\C(=O)Oc2ccccc2C1=O | 38.5 µM (inactive) | 24 µM (inactive) | 39.6 µM (inactive) | 31.3 µM (inactive) | 20.2 µM (inactive) | 40.6 µM (inactive) | > 100 µM (inactive) | 14.6 µM (inactive) | > 100 µM (inactive) | 33.7 µM (inactive) | 15 µM (inactive) | 29.7 µM (inactive) | 14.6 µM (inactive) | 38.5 µM (inactive) | 31.3 µM (inactive) | > 100 µM (inactive) | > 100 µM (inactive) | 39.2 µM (inactive) | 33.2 µM (inactive)
N#C[C@@H](c1ccccn1)c1ncccc1[N+](=O)[O-] | > 100 µM (inactive) | > 100 µM (inactive) | > 100 µM (inactive) | – | > 100 µM (inactive) | > 100 µM (inactive) | > 100 µM (inactive) | – | > 100 µM (inactive) | > 100 µM (inactive) | > 100 µM (inactive) | > 100 µM (inactive) | > 100 µM (inactive) | > 100 µM (inactive) | > 100 µM (inactive) | > 100 µM (inactive) | > 100 µM (inactive) | > 100 µM (inactive) | > 100 µM (inactive)
CCOC(=O)C(=C(SC)SC)c1nn2c(=O)cc(C)nc2s1 | 21 µM (inactive) | 17 µM (inactive) | 49.5 µM (inactive) | 23.9 µM (inactive) | 18.4 µM (inactive) | 23.8 µM (inactive) | 17.7 µM (inactive) | 23.4 µM (inactive) | 19.2 µM (inactive) | 18.2 µM (inactive) | 24.6 µM (inactive) | 18.7 µM (inactive) | 20.1 µM (inactive) | 71.8 µM (inactive) | 15.9 µM (inactive) | 22.6 µM (inactive) | 24.4 µM (inactive) | 16.6 µM (inactive) | 24 µM (inactive)
Nc1ccc(SC23CC4CC(CC(C4)C2)C3)cc1 | > 100 µM (inactive) | > 100 µM (inactive) | > 100 µM (inactive) | > 100 µM (inactive) | > 100 µM (inactive) | > 100 µM (inactive) | – | > 100 µM (inactive) | > 100 µM (inactive) | > 100 µM (inactive) | > 100 µM (inactive) | > 100 µM (inactive) | > 100 µM (inactive) | 92.7 µM (inactive) | > 100 µM (inactive) | > 100 µM (inactive) | > 100 µM (inactive) | > 100 µM (inactive) | > 100 µM (inactive)
O=C(O)C(NCc1ccccc1)C(NCc1ccccc1)C(=O)O (stereo unspecified) | > 100 µM (inactive) | > 100 µM (inactive) | > 100 µM (inactive) | > 100 µM (inactive) | > 100 µM (inactive) | > 100 µM (inactive) | > 100 µM (inactive) | > 100 µM (inactive) | > 100 µM (inactive) | > 100 µM (inactive) | > 100 µM (inactive) | > 100 µM (inactive) | > 100 µM (inactive) | > 100 µM (inactive) | > 100 µM (inactive) | > 100 µM (inactive) | > 100 µM (inactive) | > 100 µM (inactive) | > 100 µM (inactive)
CC1(/C=C/CCSc2ccccc2)CC(=O)C2CC1C2(C)C (stereo unspecified) | 32.5 µM (inactive) | 11.2 µM (inactive) | 14.8 µM (inactive) | 14.7 µM (inactive) | 19 µM (inactive) | 22.3 µM (inactive) | 4.67 µM (inactive) | 14.9 µM (inactive) | 5.79 µM (inactive) | 9.18 µM (inactive) | 26.6 µM (inactive) | 23.1 µM (inactive) | 14.3 µM (inactive) | 21 µM (inactive) | 21.3 µM (inactive) | 6.49 µM (inactive) | 3.19 µM (inactive) | 19.3 µM (inactive) | 17.3 µM (inactive)
CCCCNC(=S)Nc1nc(C(=O)NNC(=S)NCc2ccccc2)cs1 | 48.2 µM (inactive) | 13.2 µM (inactive) | 52.4 µM (inactive) | 20.2 µM (inactive) | 26.6 µM (inactive) | 24.1 µM (inactive) | 19.1 µM (inactive) | 49.8 µM (inactive) | 34.4 µM (inactive) | 67 µM (inactive) | 29.6 µM (inactive) | 52.4 µM (inactive) | 46.9 µM (inactive) | 37.5 µM (inactive) | 50.5 µM (inactive) | > 10 µM (inactive) | 8.24 µM (inactive) | 35.8 µM (inactive) | –
C(=N\c1nc2cc3sc(/N=C/c4cccs4)nc3cc2s1)/c1cccs1 | – | > 100 µM (inactive) | 11.5 µM (inactive) | 70.1 µM (inactive) | > 100 µM (inactive) | > 100 µM (inactive) | 28.3 µM (inactive) | 26.2 µM (inactive) | > 100 µM (inactive) | > 100 µM (inactive) | > 100 µM (inactive) | > 100 µM (inactive) | > 100 µM (inactive) | > 100 µM (inactive) | > 100 µM (inactive) | 11.5 µM (inactive) | 26.1 µM (inactive) | > 100 µM (inactive) | 5.36 µM (inactive)
CC1(C)C2CCC(O)(C2)C1N (stereo unspecified) | > 100 µM (inactive) | > 100 µM (inactive) | > 100 µM (inactive) | > 100 µM (inactive) | > 100 µM (inactive) | > 100 µM (inactive) | > 100 µM (inactive) | > 100 µM (inactive) | > 100 µM (inactive) | > 100 µM (inactive) | > 100 µM (inactive) | > 100 µM (inactive) | > 100 µM (inactive) | > 100 µM (inactive) | > 100 µM (inactive) | > 100 µM (inactive) | > 100 µM (inactive) | > 100 µM (inactive) | > 100 µM (inactive)
C=C1C(=O)O[C@@H]2/C=C(\C)CC/C=C(/COC(C)=O)C[C@@H](OC(C)=O)[C@@H]12 | 3.94 µM (inactive) | 11.4 µM (inactive) | 37.4 µM (inactive) | 13.4 µM (inactive) | 4.38 µM (inactive) | 14.1 µM (inactive) | 3.45 µM (inactive) | 7.83 µM (inactive) | 3.21 µM (inactive) | 3.91 µM (inactive) | 7.48 µM (inactive) | 4.49 µM (inactive) | 16 µM (inactive) | 53.7 µM (inactive) | 1.46 µM (inactive) | 0.718 µM (active) | 2.16 µM (inactive) | 14.2 µM (inactive) | 12.1 µM (inactive)
C[C@H]1C(OCCOC2O[C@@H]3O[C@@]4(C)CC[C@H]5[C@H](C)CCC([C@H]2C)[C@@]35O4)O[C@@H]2O[C@@]3(C)CC[C@H]4[C@H](C)CCC1[C@@]24O3 (stereo partly specified) | 44.4 µM (inactive) | 10.6 µM (inactive) | 39.8 µM (inactive) | 33.1 µM (inactive) | 40.3 µM (inactive) | 5.3 µM (inactive) | 58.6 µM (inactive) | – | > 100 µM (inactive) | 95.7 µM (inactive) | 37.2 µM (inactive) | 28.1 µM (inactive) | 17.7 µM (inactive) | – | 15.8 µM (inactive) | 30.5 µM (inactive) | 32.2 µM (inactive) | 38.4 µM (inactive) | 22.6 µM (inactive)
